Test system in the first data set: not listed separately
Kind of data set: RP-LC chromatographic lipophilicity (logkw). Type of data set: physicochemical. The conditions noted are these: chromatographic lipophilicity from gradient RP-LC, Luna RP-C18, water/acetonitrile with 0.1% formic acid, 30 °C.
Consider `Cc1cc(S(=O)(=O)NC(=N)NCc2ccc(S(N)(=O)=O)cc2)c(SCc2ccccc2)cc1Cl` [C98], for which the logkw amounted to 3.920.
`Cc1cc(S(=O)(=O)NC(=N)Nc2cccc(S(N)(=O)=O)c2)c(SCc2ccc(C(F)(F)F)cc2)cc1Cl` [C106] displayed a logkw of 4.540.
With `Cc1cc(S(=O)(=O)NC(=N)Nc2ccccc2S(N)(=O)=O)c(SCc2ccc(C(F)(F)F)cc2)cc1Cl` [C107], the logkw turned out to be 4.430.
On to `Cc1cc(S(=O)(=O)NC(=N)NNc2ccc(S(N)(=O)=O)cc2)c(SCc2ccc(C(F)(F)F)cc2)cc1Cl` [C108], for which the logkw is 4.460.
Consider `Cc1cc(S(=O)(=O)NC(=N)NCc2ccc(S(N)(=O)=O)cc2)c(SCc2ccc(C(F)(F)F)cc2)cc1Cl` [C109], for which the logkw worked out at 4.590.
On to `Cc1cc(S(=O)(=O)NC(=N)Nc2ccc(S(N)(=O)=O)cc2)c(SCc2cccc3ccccc23)cc1Cl` [C111], for which the logkw came out at 3.900.
As for `Cc1cc(S(=O)(=O)NC(=N)Nc2cccc(S(N)(=O)=O)c2)c(SCc2cccc3ccccc23)cc1Cl` [C112], the logkw amounted to 3.940.
Still for that read-out and setting: next, `Cc1cc(S(=O)(=O)NC(=N)NNc2ccc(S(N)(=O)=O)cc2)c(SCc2cccc3ccccc23)cc1Cl` [C113]: 3.830; `Cc1cc(S(=O)(=O)NC(=N)NCc2ccc(S(N)(=O)=O)cc2)c(SCc2cccc3ccccc23)cc1Cl` [C114]: 3.990; `Cc1cc(S(=O)(=O)NC(=N)Nc2ccc(S(N)(=O)=O)cc2)c(SCc2cc(=O)[nH]c3ccccc23)cc1Cl` [C115]: 3.830.
In the case of `Cc1cc(S(=O)(=O)NC(=N)Nc2cccc(S(N)(=O)=O)c2)c(SCc2cc(=O)[nH]c3ccccc23)cc1Cl` [C116], the logkw is on record as 3.800.
`Cc1cc(S(=O)(=O)NC(=N)Nc2ccccc2S(N)(=O)=O)c(SCc2cc(=O)[nH]c3ccccc23)cc1Cl` [C117]: the logkw worked out at 3.870.
Still for that read-out and setting: to `Cc1cc(S(=O)(=O)NC(=N)NNc2ccc(S(N)(=O)=O)cc2)c(SCc2cc(=O)[nH]c3ccccc23)cc1Cl` [C118] belongs 3.770; to `Cc1cc(S(=O)(=O)NC(=N)Nc2ccc(S(N)(=O)=O)cc2)c(SCc2cc3c(cc2Cl)OCO3)cc1Cl` [C120], 4.070.
As for `Cc1cc(S(=O)(=O)NC(=N)Nc2cccc(S(N)(=O)=O)c2)c(SCc2cc3c(cc2Cl)OCO3)cc1Cl` [C121], the logkw is on record as 3.990.
In turn, `Cc1cc(S(=O)(=O)NC(=N)NNc2ccc(S(N)(=O)=O)cc2)c(SCc2cc3c(cc2Cl)OCO3)cc1Cl` [C122] registered a logkw of 3.690.
`Cc1cc(S(=O)(=O)NC(=N)NCc2ccc(S(N)(=O)=O)cc2)c(SCc2cc3c(cc2Cl)OCO3)cc1Cl` [C123] came in with a logkw of 3.850.

A further data set deals with CA IX (Homo sapiens, UniProt Q16790). The data set is described as follows: Stopped-flow CA-catalysed CO2 hydration inhibition assay. Type of data set: biochemical. The conditions noted are these: logarithm of Ki (Ki in nM); mean of three determinations.
In the case of `Cc1cc(S(=O)(=O)NC(=N)NCc2ccc(S(N)(=O)=O)cc2)c(SCc2ccccc2)cc1Cl` [C98], the “logKi(CA IX)” value is reported as 1.130.

Staying with this data set, now noted: sulphonamides with IDs C...; read-out: Ki.
With `Cc1cc(S(=O)(=O)NC(=N)NCc2ccc(S(N)(=O)=O)cc2)c(SCc2ccccc2)cc1Cl` [C98], the Ki is 23.1 nM.

Staying with this data set, now noted: sulphonamides with IDs C...; read-out: pKi (exp.) (converted).
For `Cc1cc(S(=O)(=O)NC(=N)NCc2ccc(S(N)(=O)=O)cc2)c(SCc2ccccc2)cc1Cl` [C98], the Ki was 23.1 nM.

The record behind these values is article PMC6151961 (Journal of Enzyme Inhibition and Medicinal Chemistry, 2018).
